Measurements: US20030170731A1, “Diagnosis and treatment of non-ulcer dyspepsia based on hypothalamic-pituitary-adrenal axis abnormallity” (priority 2000, published 2003)

System: CRH receptors
Experiment: CRH/ACTH test: plasma ACTH after intravenous ovine CRH, immunoradiometric assay
Type: in vivo, human
Conditions: ovine CRH 100 μg intravenously
Source text: A total of ten patients with NUD were recruited from the Gastroenterology Clinic at St. James's Hospital, Dublin. Patients consisted of six men and four woman between the ages of twenty eight and forty five. They were matched for age and sex with ten healthy volunteers. To be included in the study patients had at least four of the following symptoms for at least three months: early satiety, upper abdominal pain, post prandial bloating, excessive flatulence, borborygmus, and nausea and/or vomiting. They all had normal results on physical examination. Endoscopic examination, twenty-four hour ambulatory pH monitoring, abdominal ultrasound were all negative. Five patients with H. pylori infestation were tested both before and after H. pylori eradication. The other five patients had no evidence of H. pylori infection. None of the patients had evidence of a formal psychiatric illness. Also none of the patients fulfilled the criteria for IBS.
Patients who were H. pylori positive were re-tested six months after commencing eradication therapy. In all cases endocrine tests were commenced at 1400 h. The test procedure was as follows. […]
Plasma ACTH was measured using a two site unextracted immunoradiometric assay with a commercially available kit supplied by the Nichols Institute (San Juan Capistrano, Calif.). […]

Q: What does the source list for “ovine CRH: ovine variant of corticotropin releasing hormone, given intravenously as a challenge agent”?
A: CRH/ACTH enhancement following H. pylori eradication therapy (H. pylori positive NUD patients re-tested six months after commencing eradication therapy): persists; plasma ACTH response following CRH stimulation (NUD patients with and without H. pylori infection, relative to healthy volunteers, blood at 15-120 min): vastly enhanced
